Reference: US20090016989A1, “ANTIBODIES TO HUMAN SOMATOSTATIN RECEPTOR AND METHODS OF USE” (priority 2007, published 2009)

Legend:
Assay type in all cases: cell-based, human
QGP cells = assay: MTS growth assay in pancreatic islet carcinoma cells; conditions: antibodies 5 μg/ml every 24 hours, octreotide 100 nM every 24 hour, FIG. 15
Procedure: The QGP cells were maintained in F12 HAM (Invitrogen, Cat#31765035)/D-MEM (Invitrogen, Cat#10567-014) (50/50) in 10% certified fetal bovine serum (FBS) (Invitrogen, Cat#16000-044) in 10-cm tissue culture plates (BD Biosciences, Cat#353003). QGP cells were first seeded at a density of 5000 cells/well in QGP cell growth media and grown in 96-well cell culture plates (Costar, Cat#3590) and allowed to attach and grow in 100 μl cell growth media. […] QGP cells constitutively make their own somatostatin. This negative growth autocrine loop was tested by adding 10 μg/ml neutralizing anti-SST antibody (SST antibody, right hand Y-axis of FIG. 15) once every 24 hours, and a significant growth rescue (29%) was observed. […] CellTiter 96® Aqueous One Solution Cell Proliferation Assay (MTS) (Promega, Cat#G3581), was used as described above to measure the growth doubling time for all QGP cells. Daily data collected was used to calculate the doubling time in hours. QGP cell growth increase or decrease as a result of each treatment is presented as a percent change along the x-axis in FIG. 15. The percent change for QGP cells in each treatment was derived by normalizing treated cells against untreated cells (as % of change in growth) in growth doubling time.

[1] = tested on: shSSTR subtype 2-BON cells; assay: Growth suppression in tetracycline-controlled shRNA knock-down cells; conditions: sh-hSSTR subtype 2-BON; FIG. 5
Procedure: To validate that cell growth inhibition is caused by the anti-hSSTR antibody in a subtype specific manner, BON cells were stably transfected with plasmids carrying short hairpin RNA shSSTR subtype 2 or shSSTR subtype 5 in which the expression of the shRNAs were under the control of tetracycline. Sh-hSSTR subtype 2 and sh-hSSTR subtype 5 destabilize the target receptor's messenger RNA and, consequently, knock down the expression of the target gene.
The resulting maximal suppression in hours (20 hours) is designated as 100% of growth suppression. The difference measured in doubling time detected between experimental samples and untreated samples divided by the maximal suppression yields the percent growth suppression.
shSSTR BON cells were used to test the specificity of anti-hSSTR subtype 2 and anti-hSSTR subtype 5 antibodies in suppressing BON cell growth. […] The left panels of FIG. 6a and FIG. 6B are the experimental group, while the right panels are the negative control. The Y-axis of each of FIG. 6A and FIG. 6B indicates the growth suppression outcome in %, while the X-axis of each of FIG. 6A and FIG. 6B indicates the increasing concentrations of the antibodies added in each sample. […]

BON cells [2] = assay: Guava Nexin apoptosis assay (Annexin V / 7-AAD); conditions: 10 μg/ml rabbit IgG or antibodies, 100 nM octreotide, % of Total
Procedure: Cells were then switched to growth media without FBS and allowed to grow for another 24 hours before applying treatments. Samples were collected and counted in accordance with Guava Technologies' Viacount Flex (Cat#4500-0110) instructions. At the end of each antibody treatment, cells were dissociated from the plate using 1× trypsin-EDTA (Invitrogen Cat#2520). […] Next, phosphate buffer solution (D-PBS) (Invitrogen Cat#14190-144) (Invitrogen) was used as the exchange buffer to resuspend the cell pellet. […] Detection was achieved by using Guava PCA96 instrument and data was analysed by using Guava Nexin software module as (Cat#0500-0250). […] Following the protocol for the Guava Nexin™ assay (Guava Technologies), two different dyes were used to stain for cells undergoing apoptosis: 7-AAD stains for dead and late apoptosis cells (upper right quadrant of each graph in FIG. 10), and Annexin V stains for cells undergoing apoptosis from the early stage (lower right quadrant of each graph in FIG. 10). […] Once every 24 hours for 72 hours (FIGS. 10B, 10C and 10D), cells were collected and tested for apoptosis status using the Guava Nexin™ assay (Guava Technologies).

BON cells [3] = assay: Cell cycle progression, propidium iodide flow cytometry; conditions: 48 hours, 5 μg/ml antibodies or rabbit IgG, 100 nM octreotide, FIG. 12
Procedure: Propidium iodide dye was used in flow cytometry (Guava Cell Cycle Reagent Cat #4500-0220) to stain DNA and detect cell cycle progression in BON cells. Treatment conditions for the experiment were as follows: (i) D-PBS; (ii) 5 μg/ml rabbit IgG; (iii) 5 μg/ml anti-hSSTR subtype 2 antibodies; […] Treatments, as described above, were added to the cells once every 24 hours for a total of 48 hours. At the end of each treatment, cells were dissociated from the plate using 2 ml 1× trypsin-EDTA (Invitrogen Cat#2520). […] Next, phosphate buffer solution (D-PBS) (Invitrogen Cat#14190-144) was used as the exchange buffer and 15 ml Falcon tubes with samples were spun at 900 rpm using a table top centrifuge (Beckman Coulter). After centrifugation, supernatant was discarded and cell pellet was resuspended in 10 ml of PBS and this was repeated two times. […] Guava Cell Cycle Reagent (Guava Technologies, Cat#4500-0220) was used for detection by using the Guava PCA96 instrument. Cell Cycle data was analyzed by using Guava Cell Cycle module (Guava Technologies, Cat# 0500-0480). For further detail, please see Guava Cell Cycle Reagent protocol (Guava Technologies).

[4] = tested on: sh-hSSTR subtype 5-BON cells; assay: Growth in tetracycline-controlled shRNA knock-down cells; conditions: FIG. 5

`C[C@@H](O)[C@@H]1NC(=O)[C@H](CCCCN)NC(=O)[C@@H](Cc2c[nH]c3ccccc23)NC(=O)[C@H](Cc2ccccc2)NC(=O)[C@@H](NC(=O)[C@H](N)Cc2ccccc2)CSSC[C@@H](C(=O)N[C@H](CO)[C@@H](C)O)NC1=O` [octreotide] was tested, and the QGP growth suppression (QGP cells) was “sensitive”, the “growth doubling time under octreotide compared to BON cells” value [1] was “did not change” and the “7-AAD+” value (BON cells [2]; 24 hours after treatment) was 1.1%. For the same compound, the “Annexin V+” value (BON cells [2]; 24 hours after treatment) was 4.3%, the “Early apoptotic cells (Lower Right Quadrant)” value (BON cells [2]; 24 hours after treatment) was 3.3% and the “Late apoptotic cells (Upper Right Quadrant)” value (BON cells [2]; 24 hours after treatment) was 1.0%. The “Nuclear Debris (Upper Left Quadrant)” value (BON cells [2]; 24 hours after treatment) was 0.1%, the “7-AAD+” value (BON cells [2]; 48 hours after treatment) was 10.9% and the “Annexin V+” value (BON cells [2]; 48 hours after treatment) was 13.7%. For the same compound, the “Early apoptotic cells (Lower Right Quadrant)” value (BON cells [2]; 48 hours after treatment) was 3.8%, the “Nuclear Debris (Upper Left Quadrant)” value (BON cells [2]; 48 hours after treatment) was 1.0% and the “7-AAD+” value (BON cells [2]; 72 hours after treatment) was 19.8%. For the same compound, the “Annexin V+” value (BON cells [2]; 72 hours after treatment) was 26.9%, the “Early apoptotic cells (Lower Right Quadrant)” value (BON cells [2]; 72 hours after treatment) was 7.7% and the “Late apoptotic cells (Upper Right Quadrant)” value (BON cells [2]; 72 hours after treatment) was 19.2%. The “Nuclear Debris (Upper Left Quadrant)” value (BON cells [2]; 72 hours after treatment) was 0.6%, the “cell population in G0/G1” value (BON cells [3]) was roughly 75% and the “growth doubling time under octreotide compared to BON cells” value [4] was “did not change”.
